For data set [1] the following is noted: whole blood 70 ng/ml on alginate foam.
The nature of data set [2]: Long term stability of model analytes in dried oral fluid stored 30 days on alginate or chitosan foam. The conditions noted are these: n = 3. It counts as physicochemical, human. The source says:
The results are shown in Tables 3 and 4 for alginate and chitosan foam, respectively. No sample loss is observed after 30 days of storage. The stability of the model analytes by storing oral fluid on alginate and chitosan foam was considered satisfactory.

The conditions of data set [3]: cited from earlier work.
[4] abbreviates: oral fluid on alginate foam, theoretical 100 ng/ml, stored at 4 C.
The mark [5] stands for this setting: oral fluid on alginate foam, theoretical 100 ng/ml, stored at 37 C.
[6] abbreviates: oral fluid on alginate foam, theoretical 100 ng/ml, stored at room temperature.
Where [7] appears, read: oral fluid on alginate foam, theoretical 100 ng/ml, stored at −18 C.
Where [8] appears, read: oral fluid on alginate foam, theoretical 500 ng/ml, stored at 4 C.
[9] abbreviates: oral fluid on alginate foam, theoretical 500 ng/ml, stored at room temperature.
Where [10] appears, read: oral fluid on alginate foam, theoretical 500 ng/ml, stored at −18 C.
Setting [11] is: oral fluid on chitosan foam, theoretical 100 ng/ml, stored at 4 C.
Where [12] appears, read: oral fluid on chitosan foam, theoretical 100 ng/ml, stored at 37 C.
Where [13] appears, read: oral fluid on chitosan foam, theoretical 100 ng/ml, stored at room temperature.
Where [14] appears, read: oral fluid on chitosan foam, theoretical 100 ng/ml, stored at −18 C.
The mark [15] stands for this setting: oral fluid on chitosan foam, theoretical 500 ng/ml, stored at 4 C.
The mark [16] stands for this setting: oral fluid on chitosan foam, theoretical 500 ng/ml, stored at 37 C.
Setting [17] is: oral fluid on chitosan foam, theoretical 500 ng/ml, stored at room temperature.
The mark [18] stands for this setting: oral fluid on chitosan foam, theoretical 500 ng/ml, stored at −18 C.
Where [19] appears, read: oral fluid on alginate foam, theoretical 500 ng/ml, stored at 37 C.

The structures appear in SMILES notation. Where a name gives a salt, the structure may show the parent alone. Read-outs that look alike come from different tables or passages of the source.

`CCC(=O)C(CC(C)N(C)C)(c1ccccc1)c1ccccc1` (stereo not drawn) [Methadone, Methadone hydrochloride]: the “Nominal concentration at day 50” value in data set [1] (stored at 4° C.) stood at 63 ng/mL; in data set [1] (stored at 37° C.), 54 ng/mL; in data set [1] (stored at room temperature), 61 ng/mL; in data set [1] (stored at −18° C.), 79 ng/mL. Besides, the “Measured concentration at day 30” value in data set [2] (setting [4]) amounted to 113 ng/mL; in data set [2] (setting [5]), 117 ng/mL; in data set [2] (setting [6]), 103 ng/mL; in data set [2] (setting [7]), 106 ng/mL; in data set [2] (setting [8]), 636 ng/mL; in data set [2] (setting [9]), 582 ng/mL. Also, the “Measured concentration at day 30” value in data set [2] (setting [10]) came to 602 ng/mL; in data set [2] (setting [11]), 115 ng/mL; in data set [2] (setting [12]), 108 ng/mL; in data set [2] (setting [13]), 113 ng/mL; in data set [2] (setting [14]), 105 ng/mL; in data set [2] (setting [15]), 564 ng/mL. Besides, the “Measured concentration at day 30” value in data set [2] (setting [16]) worked out at 545 ng/mL; in data set [2] (setting [17]), 582 ng/mL; in data set [2] (setting [18]) it was 599 ng/mL.
As for `CNC(C)Cc1ccc(OC)cc1` (stereo not drawn) [PMMA, para-methoxymethamphetamine], the “Measured concentration at day 30” value in data set [2] (setting [4]) amounted to 114 ng/mL; in data set [2] (setting [5]), 76 ng/mL; in data set [2] (setting [6]) it was 197 ng/mL; in data set [2] (setting [7]), 114 ng/mL; in data set [2] (setting [8]) it was 715 ng/mL; in data set [2] (setting [19]), 475 ng/mL. Further, the “Measured concentration at day 30” value was determined as 628 ng/mL in data set [2] (setting [9]); 726 ng/mL in data set [2] (setting [10]); 123 ng/mL in data set [2] (setting [11]); 112 ng/mL in data set [2] (setting [12]); 104 ng/mL in data set [2] (setting [13]); 119 ng/mL in data set [2] (setting [14]). Further, the “Measured concentration at day 30” value in data set [2] (setting [15]) was found to be 765 ng/mL; in data set [2] (setting [16]) it was 623 ng/mL; in data set [2] (setting [17]), 647 ng/mL; in data set [2] (setting [18]) it was 769 ng/mL.
As for `CO[C@@]12CC[C@@]3(C[C@@H]1[C@](C)(O)C(C)(C)C)[C@H]1Cc4ccc(O)c5c4[C@@]3(CCN1CC1CC1)[C@H]2O5.Cl` [Buprenorphine, buprenorphine hydrochloride], the “Measured concentration at day 30” value was found to be 101 ng/mL in data set [2] (setting [4]); 115 ng/mL in data set [2] (setting [5]); 97 ng/mL in data set [2] (setting [6]); 96 ng/mL in data set [2] (setting [7]); 790 ng/mL in data set [2] (setting [8]); 656 ng/mL in data set [2] (setting [19]). Moreover, the “Measured concentration at day 30” value in data set [2] (setting [9]) was found to be 642 ng/mL; in data set [2] (setting [10]) it was 656 ng/mL; in data set [2] (setting [11]), 105 ng/mL; in data set [2] (setting [12]), 100 ng/mL; in data set [2] (setting [13]) it was 101 ng/mL; in data set [2] (setting [14]) it was 101 ng/mL. The “Measured concentration at day 30” value in data set [2] (setting [15]) came out at 569 ng/mL; in data set [2] (setting [16]), 595 ng/mL; in data set [2] (setting [17]), 595 ng/mL; in data set [2] (setting [18]) it was 611 ng/mL.
As for `CN(C)CCCC1(c2ccc(F)cc2)OCc2cc(C#N)ccc21` (stereo not drawn) [Citalopram, citalopram hydrobromide], the “Nominal concentration at day 50” value turned out to be 64 ng/mL in data set [1] (stored at 4° C.), 59 ng/mL in data set [1] (stored at 37° C.), 64 ng/mL in data set [1] (stored at room temperature) and 72 ng/mL in data set [1] (stored at −18° C.).
For the molecule `COc1ccc(CC(C)N)cc1` (stereo not drawn) [PMA, para-methoxyamphetamine], the “Measured concentration at day 30” value in data set [2] (setting [4]) came to 115 ng/mL; in data set [2] (setting [5]), 53 ng/mL; in data set [2] (setting [6]), 80 ng/mL; in data set [2] (setting [7]), 105 ng/mL; in data set [2] (setting [8]) it was 722 ng/mL; in data set [2] (setting [19]), 406 ng/mL. The “Measured concentration at day 30” value is 628 ng/mL in data set [2] (setting [9]); 717 ng/mL in data set [2] (setting [10]); 127 ng/mL in data set [2] (setting [11]); 131 ng/mL in data set [2] (setting [12]); 104 ng/mL in data set [2] (setting [13]); 122 ng/mL in data set [2] (setting [14]). In addition, the “Measured concentration at day 30” value in data set [2] (setting [15]) came out at 765 ng/mL; in data set [2] (setting [16]) it was 648 ng/mL; in data set [2] (setting [17]), 719 ng/mL; in data set [2] (setting [18]) it was 769 ng/mL.
One may read the pKa as the pH at which an ionisable group is half protonated. Take `O=C[C@H](O)[C@H](O)[C@@H](O)[C@H](O)C(=O)O` [guluronic, guluronic acid]: in data set [3], the pKa is given as 3.65.
For the molecule `CN[C@H]1CC[C@@H](c2ccc(Cl)c(Cl)c2)c2ccccc21` [Sertraline, sertraline hydrochloride], the “Nominal concentration at day 50” value in data set [1] (stored at 4° C.) was found to be 69 ng/mL; in data set [1] (stored at 37° C.), 61 ng/mL; in data set [1] (stored at room temperature) it was 77 ng/mL; in data set [1] (stored at −18° C.) it was 64 ng/mL.
`N[C@H]1C(O)O[C@H](CO)[C@@H](O)[C@@H]1O` (stereo partly drawn) [glucosamine]: in data set [3], the pKa is reported as 6.3.
In the case of `CN[C@@H](C)Cc1ccccc1` [Methamphetamine], the “Measured concentration at day 30” value in data set [2] (setting [4]) was found to be 107 ng/mL; in data set [2] (setting [5]) it was 42 ng/mL; in data set [2] (setting [6]), 72 ng/mL; in data set [2] (setting [7]) it was 103 ng/mL; in data set [2] (setting [8]) it was 645 ng/mL; in data set [2] (setting [19]), 319 ng/mL. Further, the “Measured concentration at day 30” value came out at 466 ng/mL in data set [2] (setting [9]); 687 ng/mL in data set [2] (setting [10]); 126 ng/mL in data set [2] (setting [11]); 80 ng/mL in data set [2] (setting [12]); 98 ng/mL in data set [2] (setting [13]); 117 ng/mL in data set [2] (setting [14]). Moreover, the “Measured concentration at day 30” value worked out at 744 ng/mL in data set [2] (setting [15]), 467 ng/mL in data set [2] (setting [16]), 601 ng/mL in data set [2] (setting [17]) and 732 ng/mL in data set [2] (setting [18]).

The values above are taken from US20150132746A1, “SAMPLING MEDIUM” (UNIVERSITY OF OSLO, priority 2012, published 2015).
